How the values were obtained:
[1] = Stability of amlodipine in contact with the basic telmisartan formulation; format: physicochemical; settings: direct contact with excipients to be used in a telmisartan formulation (basic components, e.g. sodium hydroxide or meglumine)
Text: There are various types of fixed dose combination dosage forms conceivable but it cannot be predicted which of these dosage forms best combines product stability, pharmacological efficacy, and reliable manufacture. Generally, combinations of two active pharmaceutical ingredients could be formulated as oral solid or oral liquid dosage forms such as tablets, capsules, coated or sugar-coated tablets, granules, oral solutions, emulsions or suspensions, syrups, and lozenges. In view of experiences with liquid dosage forms of telmisartan, oral liquid dosage forms are not considered a preferred embodiment according to the present invention. An instant release oral solid dosage form containing two drugs could be prepared by either making a powder mixture or a co-granulate of the two active ingredients with the necessary excipients. However, for a combination of telmisartan and amlodipine, this approach turns out not to result in a dosage form with sufficient product stability. […] The ester bonds in the amlodipine molecule appear to be subject to hydrolysis when exposed to an alkaline milieu. […]

[2] = physiological pH range of the gastrointestinal tract between pH 1 to 7; cited from earlier work

Row | Compound | stability of amlodipine [1] | solubility in aqueous systems [2]
1 | 3-ethyl-5-methyl-2-(2-aminoethoxymethyl)-4-(2-chlorophenyl)-1,4-dihydro-6-methyl-3,5-pyridinedicarboxylate [amlodipine] | not stable enough | –
2 | CCCc1nc2c(C)cc(-c3nc4ccccc4n3C)cc2n1Cc1ccc(-c2ccccc2C(=O)O)cc1 [Telmisartan, 4′-[2-n-propyl-4-methyl-6-(1-methylbenzimidazol-2-yl)benzimidazol-1-ylmethyl]biphenyl-2-carboxylic acid] | – | very poor solubility
